Measurements reported in PubChem BioAssay (NCI).
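The concentration for 50% growth inhibition is given as GI50. The concentration for full growth arrest is given as TGI.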

Assays:
Assay in all cases: NCI anticancer screen, dose series, 384-well format
ACHN renal = test system: ACHN renal
NCI/ADR-RES ovarian = test system: NCI/ADR-RES ovarian
IGROV1 ovarian = test system: IGROV1 ovarian
M14 melanoma = test system: M14 melanoma
MOLT-4 leukemia = test system: MOLT-4 leukemia
SF-268 CNS = test system: SF-268 CNS
HL-60(TB) leukemia = test system: HL-60(TB) leukemia
SR leukemia = test system: SR leukemia
RPMI-8226 leukemia = test system: RPMI-8226 leukemia
OVCAR-3 ovarian = test system: OVCAR-3 ovarian
DU-145 prostate = test system: DU-145 prostate
HCT-15 colon = test system: HCT-15 colon
LOX IMVI melanoma = test system: LOX IMVI melanoma
HOP-62 NSCLC = test system: HOP-62 NSCLC
OVCAR-8 ovarian = test system: OVCAR-8 ovarian
HT29 colon = test system: HT29 colon
SK-MEL-28 melanoma = test system: SK-MEL-28 melanoma
UO-31 renal = test system: UO-31 renal
SK-MEL-5 melanoma = test system: SK-MEL-5 melanoma
NCI-H522 lung = test system: NCI-H522 lung
COLO 205 colon = test system: COLO 205 colon
NCI-H322M lung = test system: NCI-H322M lung
SNB-19 CNS = test system: SNB-19 CNS
786-0 renal = test system: 786-0 renal
OVCAR-4 ovarian = test system: OVCAR-4 ovarian
PC-3 prostate = test system: PC-3 prostate
OVCAR-5 ovarian = test system: OVCAR-5 ovarian
NCI-H23 lung = test system: NCI-H23 lung
U251 glioblastoma = test system: U251 glioblastoma

SMILES: COc1ccc(-c2c(-c3ccc(C#N)c(F)c3)nc(N3CCC(N)CC3)n(C)c2=O)cc1F
- GI50 (ACHN renal): 12.4 µM
- TGI (ACHN renal): 24.9 µM
- GI50 (NCI/ADR-RES ovarian): 16.5 µM
- TGI (NCI/ADR-RES ovarian): 30.3 µM
- GI50 (IGROV1 ovarian): 13.9 µM
- TGI (IGROV1 ovarian): 26.9 µM
- GI50 (M14 melanoma): 4.89 µM
- TGI (M14 melanoma): 16.6 µM
- GI50 (MOLT-4 leukemia): 1.78 µM
- TGI (MOLT-4 leukemia): 3.17 µM
- GI50 (SF-268 CNS): 14.1 µM
- TGI (SF-268 CNS): 27.1 µM
- GI50 (HL-60(TB) leukemia): 3.89 µM
- TGI (HL-60(TB) leukemia): 15.1 µM
- GI50 (SR leukemia): 1.69 µM
- TGI (SR leukemia): 3.06 µM
- GI50 (RPMI-8226 leukemia): 7.53 µM
- TGI (RPMI-8226 leukemia): 19.6 µM
- GI50 (OVCAR-3 ovarian): 13.2 µM
- TGI (OVCAR-3 ovarian): 26 µM
- GI50 (DU-145 prostate): 15.1 µM
- TGI (DU-145 prostate): 28.9 µM
- GI50 (HCT-15 colon): 15.7 µM
- TGI (HCT-15 colon): 29.3 µM
- GI50 (LOX IMVI melanoma): 19.2 µM
- TGI (LOX IMVI melanoma): 33.3 µM
- GI50 (HOP-62 NSCLC): 15.3 µM
- TGI (HOP-62 NSCLC): 28.7 µM
- GI50 (OVCAR-8 ovarian): 14.5 µM
- TGI (OVCAR-8 ovarian): 27.6 µM
- GI50 (HT29 colon): 9.51 µM
- TGI (HT29 colon): 21.6 µM
- GI50 (SK-MEL-28 melanoma): 10.7 µM
- TGI (SK-MEL-28 melanoma): 22.6 µM
- GI50 (UO-31 renal): 13.3 µM
- TGI (UO-31 renal): 26.1 µM
- GI50 (SK-MEL-5 melanoma): 14.4 µM
- TGI (SK-MEL-5 melanoma): 27.5 µM
- GI50 (NCI-H522 lung): 11.7 µM
- TGI (NCI-H522 lung): 24 µM
- GI50 (COLO 205 colon): 12 µM
- TGI (COLO 205 colon): 24.3 µM
- GI50 (NCI-H322M lung): 14.3 µM
- TGI (NCI-H322M lung): 28.3 µM
- GI50 (SNB-19 CNS): 18 µM
- TGI (SNB-19 CNS): 32.1 µM
- GI50 (786-0 renal): 10.6 µM
- TGI (786-0 renal): 22.5 µM
- GI50 (OVCAR-4 ovarian): 14.3 µM
- TGI (OVCAR-4 ovarian): 27.6 µM
- GI50 (PC-3 prostate): 13.8 µM
- TGI (PC-3 prostate): 26.8 µM
- GI50 (OVCAR-5 ovarian): 14.7 µM
- TGI (OVCAR-5 ovarian): 28.2 µM
- GI50 (NCI-H23 lung): 11.2 µM
- TGI (NCI-H23 lung): 28.6 µM
- GI50 (U251 glioblastoma): 12.2 µM
